Source: ChEMBL document CHEMBL1135116, “Heterocyclic nucleoside analogues: design and synthesis of antiviral, modified nucleosides containing isoxazole heterocycles” (Bioorg Med Chem Lett, 2002)
Values after ≈ are worked out from the molar mass of the structure shown.

Assays:
[1] = tested on: Coxsackievirus B3; test: Tested for its anti-polio activity against Coxsackie B virus type-3; assay type: functional, organism-based; conditions: Enterovirus B
[2] = tested on: Coxsackievirus B3; test: Selectivity index as the ratio of CC50/EC50 against Coxsackie B virus type-3; assay type: functional
[3] = tested on: Vesicular stomatitis virus; test: Selectivity index as the ratio of CC50/EC50 against Vesicular stomatitis virus; assay type: functional
[4] = tested on: Vesicular stomatitis virus; test: Tested for its anti-polio activity against Vesicular stomatitis virus; assay type: functional, organism-based

Compound	EC50 [1] [µg/mL]	Selectivity index [2]	Selectivity index [3]	EC50 [4] [µg/mL]
Cc1cn(Cc2cc([C@H](Cc3ccccc3)NC(=O)OC(C)(C)C)no2)c(=O)n(C(=O)c2ccccc2)c1=O	10.6 (≈ 20 µM)	2.46	3.29	7.94 (≈ 15 µM)
NC(=O)c1ncn([C@@H]2O[C@H](CO)[C@@H](O)[C@H]2O)n1 [RIBAVIRIN]	92.5 (≈ 379 µM)	5.58	27.26	15.6 (≈ 64 µM)
CC(C)[C@H](NC(=O)OC(C)(C)C)c1cc(Cn2ccc(=O)n(C(=O)c3ccccc3)c2=O)on1	98.1 (≈ 209 µM)	1.02	1.25	80 (≈ 171 µM)
